Source: patent US20260028365A1 (BIOGEN MA INC., priority 2022, published 2026)
Where two headings read alike, the source gives them in different places.

Legend:
JH2 domain of human Tyk2 = JH2 domain of human Tyk2 (Homo sapiens (Human), UniProt P29597); assay: JH2 Biochemical Assay (TR-FRET probe displacement); type: binding
Tyk2 = Tyk2 (Homo sapiens (Human), UniProt P29597); assay: pSTAT4 Cell Assay (MSD, NK92 cells); type: cell-based
[1] = TR-FRET probe displacement, JH2 domain of human Tyk2
[2] = JH2 domain of human Tyk2, TR-FRET probe displacement
[3] = TR-FRET probe displacement, JH2 domain

Chain of Tyk2 (P29597 whole entry, the tested form may be a part): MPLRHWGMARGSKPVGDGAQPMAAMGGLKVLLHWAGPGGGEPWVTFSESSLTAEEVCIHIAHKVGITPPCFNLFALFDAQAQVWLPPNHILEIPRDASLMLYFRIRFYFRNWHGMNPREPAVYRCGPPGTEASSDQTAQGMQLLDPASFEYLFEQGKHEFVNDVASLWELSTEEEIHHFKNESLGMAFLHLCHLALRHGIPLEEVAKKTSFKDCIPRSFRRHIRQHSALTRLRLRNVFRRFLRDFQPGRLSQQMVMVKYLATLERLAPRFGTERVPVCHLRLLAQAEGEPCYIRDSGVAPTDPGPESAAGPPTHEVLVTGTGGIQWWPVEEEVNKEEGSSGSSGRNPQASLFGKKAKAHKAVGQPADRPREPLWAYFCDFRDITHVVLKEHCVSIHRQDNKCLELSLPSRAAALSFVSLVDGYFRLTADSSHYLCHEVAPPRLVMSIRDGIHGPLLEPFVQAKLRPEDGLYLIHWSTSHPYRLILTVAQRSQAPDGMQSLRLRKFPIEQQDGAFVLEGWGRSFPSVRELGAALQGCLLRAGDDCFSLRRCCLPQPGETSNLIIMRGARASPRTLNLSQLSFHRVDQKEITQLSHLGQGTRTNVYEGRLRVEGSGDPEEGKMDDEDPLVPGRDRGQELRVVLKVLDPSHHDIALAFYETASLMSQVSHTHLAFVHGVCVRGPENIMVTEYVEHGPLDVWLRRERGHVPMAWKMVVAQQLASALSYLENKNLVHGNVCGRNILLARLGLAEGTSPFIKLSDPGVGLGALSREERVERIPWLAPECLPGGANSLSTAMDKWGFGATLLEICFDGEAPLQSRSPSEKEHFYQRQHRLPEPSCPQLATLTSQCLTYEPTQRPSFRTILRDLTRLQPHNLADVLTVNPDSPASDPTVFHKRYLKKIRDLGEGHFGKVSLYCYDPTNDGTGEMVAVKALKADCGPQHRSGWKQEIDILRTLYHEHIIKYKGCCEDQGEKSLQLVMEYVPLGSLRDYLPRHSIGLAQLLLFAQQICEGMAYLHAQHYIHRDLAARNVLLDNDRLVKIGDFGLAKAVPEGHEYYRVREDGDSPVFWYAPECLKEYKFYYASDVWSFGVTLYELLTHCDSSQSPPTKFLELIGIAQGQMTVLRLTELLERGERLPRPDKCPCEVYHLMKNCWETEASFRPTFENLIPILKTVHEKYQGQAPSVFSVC
Chain of JH2 domain of human Tyk2 (P29597 575-876): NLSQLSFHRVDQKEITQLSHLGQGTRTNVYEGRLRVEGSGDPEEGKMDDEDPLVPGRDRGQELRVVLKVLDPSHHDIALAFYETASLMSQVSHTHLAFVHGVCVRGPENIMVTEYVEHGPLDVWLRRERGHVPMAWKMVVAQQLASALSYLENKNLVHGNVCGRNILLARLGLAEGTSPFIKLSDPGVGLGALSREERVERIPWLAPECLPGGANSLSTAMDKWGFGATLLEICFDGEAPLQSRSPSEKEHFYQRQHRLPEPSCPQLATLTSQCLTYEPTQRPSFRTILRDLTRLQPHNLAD

## CC(=O)Nc1cc(Nc2ccnc(C(C)(F)F)n2)c(-c2nnc(N3CCOCC3)s2)cn1 [Example 255, N-(4-((2-(1,1-difluoroethyl)pyrimidin-4-yl)amino)-5-(5-morpholino-1,3,4-thiadiazol-2-yl)pyridin-2-yl)acetamide]
JH2 domain of human Tyk2; [1]
  IC50: ≤ 10 nM
Tyk2; MSD
  IC50: ≤ 10 nM

## CC(=O)Nc1cc(Nc2cc(C)nc(C(C)(F)F)n2)c(OCCCF)cn1 [Example 295, N-(4-((2-(1,1-difluoroethyl)-6-methylpyrimidin-4-yl)amino)-5-(3-fluoropropoxy)pyridin-2-yl)acetamide]
JH2 domain of human Tyk2; [1]
  IC50: ≤ 10 nM
Tyk2; MSD
  IC50: 10 to 100 nM

## CC(=O)Nc1cc(Nc2cc(C)nc(C(C)(C)F)n2)c(-c2ncc(F)cn2)cn1 [Example 723, N-(4-((2-(2-fluoropropan-2-yl)-6-methylpyrimidin-4-yl)amino)-5-(5-fluoropyrimidin-2-yl)pyridin-2-yl)acetamide]
JH2 domain of human Tyk2; [2]
  IC50: ≤ 10 nM
Tyk2; MSD
  IC50: 10 to 100 nM

## CC(=O)Nc1cc(Nc2cc(C)nc(C(C)(C)F)n2)c(-c2ccn3ccnc3n2)cn1 [Example 533, N-(4-((2-(2-fluoropropan-2-yl)-6-methylpyrimidin-4-yl)amino)-5-(imidazo[1,2-a]pyrimidin-7-yl)pyridin-2-yl)acetamide]
JH2 domain of human Tyk2; [2]
  IC50: ≤ 10 nM
Tyk2; MSD
  IC50: ≤ 10 nM

## CC(=O)Nc1cc(Nc2cc(OC3CC3)nc(C(C)(F)F)n2)c(OCc2ccccn2)cn1 [Example 348, N-(4-((6-cyclopropoxy-2-(1,1-difluoroethyl)pyrimidin-4-yl)amino)-5-(pyridin-2-ylmethoxy)pyridin-2-yl)acetamide]
JH2 domain of human Tyk2; [1]
  IC50: ≤ 10 nM
Tyk2; MSD
  IC50: 10 to 100 nM

## CC(=O)Nc1cc(Nc2cc(C)nc(C(C)(F)F)n2)c(OCCN(C)C)cn1 [Example 25, N-(4-((2-(1,1-difluoroethyl)-6-methylpyrimidin-4-yl)amino)-5-(2-(dimethylamino)ethoxy)pyridin-2-yl)acetamide]
JH2 domain of human Tyk2; [1]
  IC50: ≤ 10 nM
Tyk2; MSD
  IC50: 10 to 100 nM

## CC(=O)Nc1cc(Nc2ccnc(C(C)(F)F)n2)c(-c2csc(C#N)n2)cn1 [Example 790, N-(5-(2-cyanothiazol-4-yl)-4-((2-(1,1-difluoroethyl)pyrimidin-4-yl)amino)pyridin-2-yl)acetamide]
JH2 domain of human Tyk2; [3]
  IC50: ≤ 10 nM
Tyk2
  IC50: ≤ 10 nM

## CC(=O)Nc1cc(Nc2cc(C)nc(C(C)(F)F)n2)c(-c2ccnc(C)n2)cn1 [Example 174, N-(4-((2-(1,1-difluoroethyl)-6-methylpyrimidin-4-yl)amino)-5-(2-methylpyrimidin-4-yl)pyridin-2-yl)acetamide]
JH2 domain of human Tyk2; [1]
  IC50: ≤ 10 nM
Tyk2; MSD
  IC50: ≤ 10 nM

## CC(=O)Nc1cc(Nc2cc(C)nc(C(C)(F)F)n2)c(-c2ncc(C)cn2)cn1 [Example 595, N-(4-((2-(1,1-difluoroethyl)-6-methylpyrimidin-4-yl)amino)-5-(5-methylpyrimidin-2-yl)pyridin-2-yl)acetamide]
JH2 domain of human Tyk2; [2]
  IC50: ≤ 10 nM
Tyk2; MSD
  IC50: 10 to 100 nM

## CC(=O)Nc1cc(Nc2cc(C)cc(C(C)(F)F)n2)c(-c2ncc(F)cn2)cn1 [Example 190, N-(4-((6-(1,1-difluoroethyl)-4-methylpyridin-2-yl)amino)-5-(5-fluoropyrimidin-2-yl)pyridin-2-yl)acetamide]
JH2 domain of human Tyk2; [1]
  IC50: ≤ 10 nM
Tyk2; MSD
  IC50: 10 to 100 nM

## COc1cccnc1COc1cnc(NC(C)=O)cc1Nc1cc(C)nc(C(C)(F)F)n1 [Example 472, N-(4-((2-(1,1-difluoroethyl)-6-methylpyrimidin-4-yl)amino)-5-((3-methoxypyridin-2-yl)methoxy)pyridin-2-yl)acetamide]
JH2 domain of human Tyk2; [2]
  IC50: 10 to 100 nM
Tyk2; MSD
  IC50: 100 to 1000 nM

## COc1cnn(-c2cnc(NC(C)=O)cc2Nc2ccnc(C(C)(F)F)n2)c1 [Example 730, N-(4-((2-(1,1-difluoroethyl)pyrimidin-4-yl)amino)-5-(4-methoxy-1H-pyrazol-1-yl)pyridin-2-yl)acetamide]
JH2 domain of human Tyk2; [2]
  IC50: 10 to 100 nM
Tyk2; MSD
  IC50: 100 to 1000 nM

## CC(=O)Nc1cc(Nc2cc(C)nc(C(C)(C)F)n2)c(-c2cn3cnnc3cn2)cn1 [Example 532, N-(5-([1,2,4]triazolo[4,3-a]pyrazin-6-yl)-4-((2-(2-fluoropropan-2-yl)-6-methylpyrimidin-4-yl)amino)pyridin-2-yl)acetamide]
JH2 domain of human Tyk2; [2]
  IC50: ≤ 10 nM
Tyk2; MSD
  IC50: 100 to 1000 nM

## CC(=O)Nc1cc(Nc2cc(C)nc(C(C)(F)F)n2)c(OCCc2ccccn2)cn1 [Example 476, N-(4-((2-(1,1-difluoroethyl)-6-methylpyrimidin-4-yl)amino)-5-(2-(pyridin-2-yl)ethoxy)pyridin-2-yl)acetamide]
JH2 domain of human Tyk2; [2]
  IC50: ≤ 10 nM
Tyk2; MSD
  IC50: 10 to 100 nM

## COc1cc(-c2cnc(NC(C)=O)cc2Nc2ccnc(C(C)(F)F)c2)ncn1 [Example 217, N-(4-((2-(1,1-difluoroethyl)pyridin-4-yl)amino)-5-(6-methoxypyrimidin-4-yl)pyridin-2-yl)acetamide]
JH2 domain of human Tyk2; [1]
  IC50: 10 to 100 nM
Tyk2; MSD
  IC50: ≥ 1000 nM

## CC(=O)Nc1cc(Nc2cc(C)nc(C3CCOC3)n2)c(-c2ccn(C)n2)cn1 (stereo not shown) [Example 555, N-(5-(1-methyl-1H-pyrazol-3-yl)-4-((6-methyl-2-(tetrahydrofuran-3-yl)pyrimidin-4-yl)amino)pyridin-2-yl)acetamide]
JH2 domain of human Tyk2; [2]
  IC50: ≤ 10 nM
Tyk2; MSD
  IC50: 10 to 100 nM

## CC(=O)Nc1cc(Nc2cc(C)nc(C(C)(F)F)n2)c(OCC2CC2(F)F)cn1 (stereo not shown) [Example 74, N-(5-((2,2-difluorocyclopropyl)methoxy)-4-((2-(1,1-difluoroethyl)-6-methylpyrimidin-4-yl)amino)pyridin-2-yl)acetamide]
JH2 domain of human Tyk2; [1]
  IC50: ≤ 10 nM
Tyk2; MSD
  IC50: 10 to 100 nM

## CC(=O)Nc1cc(Nc2cc(C)nc(C(C)(F)F)n2)c(OCc2ccncc2)cn1 [Example 473, N-(4-((2-(1,1-difluoroethyl)-6-methylpyrimidin-4-yl)amino)-5-((pyridin-4-yl)methoxy)pyridin-2-yl)acetamide]
JH2 domain of human Tyk2; [2]
  IC50: ≤ 10 nM
Tyk2; MSD
  IC50: 10 to 100 nM

## CC(=O)Nc1cc(Nc2cc(C)nc(C(C)(F)F)n2)c(OCc2scnc2C)cn1 [Example 334, N-(4-((2-(1,1-difluoroethyl)-6-methylpyrimidin-4-yl)amino)-5-((4-methylthiazol-5-yl)methoxy)pyridin-2-yl)acetamide]
JH2 domain of human Tyk2; [1]
  IC50: 10 to 100 nM
Tyk2; MSD
  IC50: 100 to 1000 nM

## CC(=O)Nc1cc(Nc2ccnc(C(C)(F)F)n2)c(-c2ccc(OC(F)F)nn2)cn1 [Example 858, N-(4-((2-(1,1-difluoroethyl)pyrimidin-4-yl)amino)-5-(6-(difluoromethoxy)pyridazin-3-yl)pyridin-2-yl)acetamide]
JH2 domain of human Tyk2; [3]
  IC50: ≤ 10 nM
Tyk2
  IC50: 10 to 100 nM

## CCOc1cnc(NC(C)=O)cc1Nc1cc(O[C@H]2C[C@H](OC)C2)nc(C)n1 [Example 519, N-(5-ethoxy-4-((6-((1r,3r)-3-methoxycyclobutoxy)-2-methylpyrimidin-4-yl)amino)pyridin-2-yl)acetamide]
JH2 domain of human Tyk2; [2]
  IC50: 100 to 1000 nM
Tyk2; MSD
  IC50: 100 to 1000 nM

## COC(C)(C)c1cc(-c2cnc(NC(C)=O)cc2Nc2cc(C)nc(C(C)(F)F)n2)nn1C [Example 758, N-(4-((2-(1,1-difluoroethyl)-6-methylpyrimidin-4-yl)amino)-5-(5-(2-methoxypropan-2-yl)-1-methyl-1H-pyrazol-3-yl)pyridin-2-yl)acetamide]
JH2 domain of human Tyk2; [3]
  IC50: ≤ 10 nM
Tyk2
  IC50: ≤ 10 nM

## CC(=O)Nc1cc(Nc2cc(C)nc(C(C)(F)F)n2)c(-c2cncc(C3CC3)n2)cn1 [Example 667, N-(5-(6-cyclopropylpyrazin-2-yl)-4-((2-(1,1-difluoroethyl)-6-methylpyrimidin-4-yl)amino)pyridin-2-yl)acetamide]
JH2 domain of human Tyk2; [2]
  IC50: ≤ 10 nM
Tyk2; MSD
  IC50: 10 to 100 nM
